{"source": "patent US10166271B2", "about": "“Methods for promoting hair growth” (THE REGENTS OF THE UNIVERSITY OF CALIFORNIA, priority 2006, dated 2019)", "key": {"[1]": {"tested_on": "CRF-OE mice", "assay": "Cyclic CRF antagonists, hair growth in adult alopecic CRF-OE mice (Example 10)", "format": "in vivo", "conditions": "at least four weeks after the final administration", "from_the_text": "Although mice are particularly described, one skilled in the art will appreciate that other laboratory animals and human subjects can be used, and doses adjusted accordingly (for example based on the weight of the subject, or the area to which the peptide is to be applied). Similarly although particular modes of administration are described, one will appreciate that variations can be made (such as those disclosed herein and those known in the art).\nAny method of administration can be used, including injection, transdermal/topical delivery, or combinations thereof.\nIn one example, therapeutic peptides are administered via injection. For example, mice can be injected subcutaneously or intraperitoneally with at least 0.05 μg, at least 0.5 μg, at least 5 μg, at least 50 μg, or at least 500 μg of one or more therapeutic peptides (for example 0.5-50 μg peptide, 0.5-10 μg peptide, or 5 μg peptide). The peptide can be administered in 0.1 ml sterile saline (or 5% mannitol) once per day for at least 5 consecutive days, such as at least 10 days, at least 30 days, or at least 60 days. […] As a negative control, CRF-OE mice receive saline alone (such as 10-100 μl) or 5 μg astressin 2B in 0.1 ml saline.\nIn another example, therapeutic peptides are administered topically or transdermally. […]"}, "[2]": {"conditions": "similar doses; Rivier et al. 2002; cited from earlier work"}}}
{"substance": "cyclo(31-34)[DPhe11, His12, CαMeLeu13,39, Nle17, Glu31, Lys34]Ac-Sau(8-40) [Astressin 2B, reference compound]", "values": [{"measurement": "Hair in the test area", "setting": "[1]", "value": "remain bald in the test area"}, {"measurement": "Duration of delay of gastric emptying", "setting": "[2]", "value": "over 6 hours"}]}
